Data on 21 compounds can be found in PMC9298201, “4‐Sulfamoylphenylalkylamides as Inhibitors of Carbonic Anhydrases Expressed in Vibrio cholerae” (Chemmedchem, 2021).

Where “and” joins values, the source holds several entries; their conditions need not be identical. Equal values may be shown once. Read-outs that look alike come from different tables or passages of the source.

One data set relates to Vibrio cholerae. More on the design: method as in PMID 26235676, PMID 27283786, PMID 23488877. The conditions noted are these: thus reducing the growth rates of pathogen; cited from earlier work.
For a further data set, the target named is VchCAγ (Vibrio cholerae, UniProt Q9KVT1). The data set can be described thus: stopped-flow CO2 hydrase assay, VchCAγ. Type of data set: biochemical.
Chain of VchCAγ (Q9KVT1 1-184): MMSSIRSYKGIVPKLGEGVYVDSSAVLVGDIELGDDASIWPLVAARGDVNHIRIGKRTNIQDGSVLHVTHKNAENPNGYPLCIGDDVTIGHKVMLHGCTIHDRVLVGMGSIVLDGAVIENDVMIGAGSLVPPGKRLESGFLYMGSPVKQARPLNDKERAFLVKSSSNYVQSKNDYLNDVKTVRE
The next data set has as its target VchCAα (Vibrio cholerae, UniProt Q9KMP6). The data set can be described thus: stopped-flow CO2 hydrase assay, VchCAα. The format is biochemical.
In the next data set the target is VchCAβ (Vibrio cholerae, UniProt A0A086SLX8). The data set can be described thus: biochemical.
Chain of VchCAβ (A0A086SLX8 entry or part of it): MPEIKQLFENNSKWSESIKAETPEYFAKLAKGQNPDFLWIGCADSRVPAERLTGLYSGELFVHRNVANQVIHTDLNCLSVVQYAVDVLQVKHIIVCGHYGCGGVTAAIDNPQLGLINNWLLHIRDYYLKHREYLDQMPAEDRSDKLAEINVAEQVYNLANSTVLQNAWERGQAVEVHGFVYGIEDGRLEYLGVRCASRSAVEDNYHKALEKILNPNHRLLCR
A further data set deals with T1, hCA I (Homo sapiens, UniProt P00915).
T1 construct: made in house
T1 sequence (P00915 whole entry): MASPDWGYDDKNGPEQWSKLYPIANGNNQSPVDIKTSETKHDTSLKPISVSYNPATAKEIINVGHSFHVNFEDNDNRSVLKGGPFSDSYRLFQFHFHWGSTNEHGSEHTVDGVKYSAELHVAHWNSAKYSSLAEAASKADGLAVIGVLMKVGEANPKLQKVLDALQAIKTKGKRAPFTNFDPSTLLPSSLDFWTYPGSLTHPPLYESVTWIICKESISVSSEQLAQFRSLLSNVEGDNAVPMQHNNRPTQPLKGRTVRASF
The data set can be described thus: stopped-flow CO2 hydrase assay, hCA I. Type of data set: biochemical. Here is the method: (§1) The uncatalyzed rates were determined in the same manner and subtracted from the total observed rates.

The next data set deals with T2, hCA II (Homo sapiens, UniProt P00918).
T2 construct: made in house
The data set can be described thus: stopped-flow CO2 hydrase assay, hCA II. The format is biochemical. The conditions noted are these: errors ±10 %, three assays. Here is the method:
as §1

Chain of VchCAα (Q9KMP6 entry or part of it): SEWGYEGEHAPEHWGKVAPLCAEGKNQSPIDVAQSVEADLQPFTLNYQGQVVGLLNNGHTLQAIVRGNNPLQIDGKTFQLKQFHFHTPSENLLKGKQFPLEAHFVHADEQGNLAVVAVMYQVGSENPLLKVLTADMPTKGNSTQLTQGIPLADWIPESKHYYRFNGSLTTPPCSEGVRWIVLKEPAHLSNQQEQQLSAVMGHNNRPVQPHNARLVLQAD

Regarding `CCOc1ccc2nc(S(N)(=O)=O)sc2c1` [EZA, ethoxzolamide], the “effect on bicarbonate mediated virulence gene induction” value in the data set on Vibrio cholerae is recorded as “suppressed bicarbonate mediated virulence gene induction”.
For `NCC(=O)Nc1ccc(S(N)(=O)=O)cc1` [compound 10, 2‐amino‐N‐(4‐sulfamoylphenyl)acetamide], the Ki worked out at 744 nM on VchCAγ (stopped-flow CO2 hydrase assay, errors ±10 %, three assays, read-out: Ki VchCA γ); 8 nM at VchCAα; 3170 nM on VchCAβ.
On to `C[C@H](N)C(=O)Nc1ccc(S(N)(=O)=O)cc1` [compound 11, (S)‐2‐Amino‐N‐(4‐sulfamoylphenyl)propanamide], for which the melting point was in the range of 216 to 217 °C. Besides, affinity at hCA I was put at a Ki of 869 nM. This compound displayed a Ki on hCA II of 383 nM. Besides, on VchCAγ, the Ki turned out to be 23.7 nM. At VchCAα, the Ki was determined as 35.7 nM. The compound also yielded a Ki at VchCAβ of 381 nM.
On to `CC(C)[C@H](N)C(=O)Nc1ccc(S(N)(=O)=O)cc1` [compound 12, (S)‐2‐amino‐3‐methyl‐N‐(4‐sulfamoylphenyl)butanamide], for which the Ki is 609 nM at hCA I; 183 nM on hCA II; 88.6 nM at VchCAγ; 659 nM on VchCAα; 362 nM on VchCAβ.
On to `NS(=O)(=O)c1ccc(NC(=O)CNC(=O)c2ccccc2)cc1` [compound 13, (S)‐N‐(2‐Oxo‐2‐((4‐sulfamoylphenyl)amino)ethyl)benzamide], for which the melting point fell in the range of 214 to 216 °C. Besides, on hCA I, the Ki came out at 524 nM. In addition, the Ki on hCA II is 19.9 nM. For the same compound, on VchCAγ, the Ki was 563 nM. The compound further had a Ki on VchCAα of 0.4 nM. Also, the Ki at VchCAβ turned out to be 884 nM.
With `C[C@H](NC(=O)c1ccccc1)C(=O)Nc1ccc(S(N)(=O)=O)cc1` [compound 14, (S)‐N‐(1‐oxo‐1‐((4‐sulfamoylphenyl)amino)propan‐2‐yl)benzamide], the melting point lay in the range of 260 to 261 °C. Also, the Ki on hCA I is 46.1 nM. The compound also gave a Ki on hCA II of 4.4 nM. The same compound gave a Ki on VchCAγ of 80.5 nM. The same compound had an inhibition constant (Ki) on VchCAα of 9.5 nM. This compound also yielded a Ki at VchCAβ of 3000 nM.
As to `CC(C)[C@H](NC(=O)c1ccccc1)C(=O)Nc1ccc(S(N)(=O)=O)cc1` [compound 15, (S)‐N‐(3‐methyl‐1‐oxo‐1‐((4‐sulfamoylphenyl)amino)butan‐2‐yl)benzamide], the melting point lay within 279 to 280 °C. Further, the affinity at hCA I corresponds to a Ki of 51.5 nM. The affinity at hCA II corresponds to a Ki of 3.7 nM. The Ki at VchCAγ worked out at 24.3 nM. The Ki on VchCAα is 9.2 nM. The affinity on VchCAβ, expressed as Ki, was 389 nM.
`NS(=O)(=O)c1ccc(NC(=O)CNC(=O)c2ccccc2Cl)cc1` [compound 20, 2‐Chloro‐N‐(2‐oxo‐2‐((4‐sulfamoylphenyl)amino)ethyl)benzamide] had a melting point of 249 to 251 °C. For the same compound, on hCA I, the affinity, expressed as Ki, was 564 nM. The compound further had a Ki at hCA II of 29.6 nM. Besides, the affinity at VchCAγ, expressed as Ki, was 8930 nM. Further, the affinity at VchCAα corresponds to a Ki of 8.9 nM. The same compound came in with a Ki at VchCAβ of 796 nM.
With `NS(=O)(=O)c1ccc(NC(=O)CNC(=O)c2cccc(Cl)c2)cc1` [compound 21, 3‐Chloro‐N‐(2‐oxo‐2‐((4‐sulfamoylphenyl)amino)ethyl)benzamide], the melting point fell in the range of 262 to 264 °C. At hCA I, this compound yielded a Ki of 127 nM. Further, the Ki on hCA II was 14.7 nM. Also, the Ki on VchCAγ stood at 364 nM. At VchCAα, affinity was put at a Ki of 18.5 nM. Also, at VchCAβ, the Ki is 82.8 nM.
Compound `NS(=O)(=O)c1ccc(NC(=O)CNC(=O)c2ccc(Cl)cc2)cc1` [compound 22, 4‐Chloro‐N‐(2‐oxo‐2‐((4‐sulfamoylphenyl)amino)ethyl)benzamide] displayed a melting point of 226 to 228 °C. In addition, the Ki on hCA I worked out at 81.3 nM. Moreover, on hCA II, the Ki came to 3.3 nM. At VchCAγ, the Ki came to 282 nM. On VchCAα, this compound showed a Ki of 9.6 nM. The compound also registered a Ki at VchCAβ of 59.7 nM.
Compound `NS(=O)(=O)c1ccc(NC(=O)CNC(=O)c2ccco2)cc1` [compound 31, N‐(2‐Oxo‐2‐((4‐sulfamoylphenyl)amino)ethyl)furan‐2‐carboxamide] had a melting point of 238 to 240 °C. The compound also gave a Ki at hCA I of 621 nM. This compound also showed a Ki on hCA II of 22.2 nM. The same compound displayed a Ki at VchCAγ of 7750 nM. Besides, the affinity on VchCAα, expressed as Ki, was 6.8 nM. Also, the Ki on VchCAβ is 460 nM.
Turning to `NS(=O)(=O)c1ccc(NC(=O)CNC(=O)c2cccs2)cc1` [compound 32, N‐(2‐Oxo‐2‐((4‐sulfamoylphenyl)amino)ethyl)thiophene‐2‐carboxamide], the melting point lay within 265 to 267 °C. In addition, at hCA I, the Ki was 430 nM. Further, the Ki at hCA II stood at 38.5 nM. The same compound registered a Ki at VchCAγ of 6020 nM. Besides, on VchCAα, the inhibition constant (Ki) was 4.8 nM. Further, the affinity on VchCAβ, expressed as Ki, was 636 nM.
In the case of `NS(=O)(=O)c1ccc(CNC(=O)CNC(=O)c2ccccc2)cc1` [compound 36, N‐(2‐Oxo‐2‐((4‐sulfamoylbenzyl)amino)ethyl)benzamide], the melting point is 211 to 213 °C. In addition, the Ki on hCA I was found to be 754 nM. In addition, on hCA II, the affinity corresponds to a Ki of 368 nM. Also, the affinity at VchCAγ, expressed as Ki, was 230 nM. Besides, on VchCAα, the affinity corresponds to a Ki of 8.2 nM. On VchCAβ, this compound displayed an inhibitory constant (Ki) of 82.8 nM.
Consider `C[C@H](NC(=O)c1ccccc1)C(=O)NCc1ccc(S(N)(=O)=O)cc1` [compound 37, (S)‐N‐(1‐Oxo‐1‐((4‐sulfamoylbenzyl)amino)propan‐2‐yl)benzamide], for which the melting point was in the range of 178 to 180 °C. The same compound displayed a Ki on hCA I of 722 nM. Also, the inhibition constant (Ki) at hCA II amounted to 302 nM. Also, on VchCAγ, the affinity corresponds to a Ki of 261 nM. Besides, on VchCAα, the Ki was found to be 56.5 nM. Also, on VchCAβ, affinity was put at a Ki of 93.3 nM.
As for `CC(C)[C@H](NC(=O)c1ccccc1)C(=O)NCc1ccc(S(N)(=O)=O)cc1` [compound 38, (S)‐N‐(3‐Methyl‐1‐oxo‐1‐((4‐sulfamoylbenzyl)amino)butan‐2‐yl)benzamide], the melting point is 213 to 215 °C. On hCA I, this compound returned a Ki of 505 nM. At hCA II, the Ki came to 170 nM. Further, the affinity at VchCAγ, expressed as Ki, was 332 nM. Moreover, on VchCAα, the Ki stood at 37.6 nM. Also, the inhibition constant (Ki) at VchCAβ came to 94.6 nM.
Take `NS(=O)(=O)c1ccc(CNC(=O)CNC(=O)c2ccco2)cc1` [compound 39, N‐(2‐Oxo‐2‐((4‐sulfamoylbenzyl)amino)ethyl)furan‐2‐carboxamide]: the Ki is 1440 nM on hCA I; 316 nM at hCA II; 734 nM at VchCAγ; 35.7 nM on VchCAα; 394 nM at VchCAβ.
For the compound `C[C@H](NC(=O)c1ccco1)C(=O)NCc1ccc(S(N)(=O)=O)cc1` [compound 40, (S)‐N‐(1‐Oxo‐1‐((4‐sulfamoylbenzyl)amino)propan‐2‐yl)furan‐2‐carboxamide], the Ki at hCA I is 6280 nM; at hCA II it was 6100 nM and 6090 nM; on VchCAγ it was 92.8 nM; at VchCAα, 8.5 nM; at VchCAβ it was 612 nM. Moreover, the “fold more selective (VchCAγ) over hCA I” value at VchCAγ (selectivity VchCAγ vs hCA I) is given as about 70 fold. For the same compound, the “fold more selective (VchCAγ) over hCA II” value on VchCAγ (selectivity VchCAγ vs hCA II) is about 70 fold. Also, the “fold more active against VchCAα over hCA I” value on VchCAα (selectivity VchCAα vs hCA I) is about 730 fold.
With `CC(C)[C@H](NC(=O)c1ccco1)C(=O)NCc1ccc(S(N)(=O)=O)cc1` [compound 41, (S)‐N‐(3‐Methyl‐1‐oxo‐1‐((4‐sulfamoylbenzyl)amino)butan‐2‐yl)furan‐2‐carboxamide], the melting point lay within 226 to 228 °C. At hCA I, this compound displayed a Ki of 215 nM. In addition, the affinity on hCA II, expressed as Ki, was 19.6 nM. The inhibition constant (Ki) at VchCAγ was 95.3 nM. The compound further registered a Ki at VchCAα of 97.8 nM. For the same compound, on VchCAβ, the Ki stood at 707 nM.
As for `NS(=O)(=O)c1ccc(CNC(=O)CNC(=O)c2cccs2)cc1` [compound 42, N‐(2‐Oxo‐2‐((4‐sulfamoylbenzyl)amino)ethyl)thiophene‐2‐carboxamide], the melting point was in the range of 220 to 222 °C. Affinity at hCA I was put at a Ki of 828 nM. At hCA II, this compound had an inhibition constant Ki of 87.3 nM. For the same compound, the affinity on VchCAγ corresponds to a Ki of 244 nM. Further, the Ki at VchCAα came out at 9.3 nM. For the same compound, on VchCAβ, the Ki came out at 627 nM.
Regarding `C[C@H](NC(=O)c1cccs1)C(=O)NCc1ccc(S(N)(=O)=O)cc1` [compound 43, (S)‐N‐(1‐Oxo‐1‐((4‐sulfamoylbenzyl)amino)propan‐2‐yl)thiophene‐2‐carboxamide], the melting point was in the range of 221 to 223 °C. The compound also registered a Ki on hCA I of 651 nM. The compound further yielded a Ki at hCA II of 71.1 nM. Further, the Ki on VchCAγ is 93.2 nM. The compound further displayed a Ki at VchCAα of 63.1 nM. The same compound came in with a Ki on VchCAβ of 691 nM.
Regarding `CC(C)[C@H](NC(=O)c1cccs1)C(=O)NCc1ccc(S(N)(=O)=O)cc1` [compound 44, (S)‐N‐(3‐Methyl‐1‐oxo‐1‐((4‐sulfamoylbenzyl)amino)butan‐2‐yl)thiophene‐2‐carboxamide], the melting point is 144 to 146 °C. This compound displayed a Ki at hCA I of 94.9 nM. The compound further gave a Ki at hCA II of 18.4 nM. The compound further displayed an inhibition constant (Ki) at VchCAγ of 84.8 nM. Further, the Ki at VchCAα worked out at 30.5 nM. On VchCAβ, this compound showed a Ki of 94.4 nM.
